These results are taken from patent US12065430B2, “Indazole compound or salt thereof” (TAIHO PHARMACEUTICAL CO., LTD., priority 2018, dated 2024).

One assay addresses G12C K-Ras4B (1-169) (Homo sapiens (Human), UniProt P01116, G12C). The assay is described as follows: Test of compounds on whether to bind to KRASG12C (LC-MS compound binding rate). As to conditions: final compound concentration of 2 μM, 1 μM protein, 25° C. for 2 hours. An outline of the steps: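 K-Ras4B (1-169) WT and G12C (1 μM each, mixed) in 1×TBS, 0.1 mM TCEP incubated with compound (final 2 μM) 2 h at 25° C; quenched with 0.2% formic acid. Intact-protein LC-MS (ESI+, deconvoluted); binding rate = adduct signal/(adduct + unbound signal), giving selectivity over WT.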

In a further assay the test system is NCI-H358 cells. Description: Growth inhibition activity on KRAS-G12C mutant cell line (NCI-H358) (in vitro, CellTiter-Glo2.0). The assay is classed as cell-based. Particulars: Homo sapiens, NCI-H358, 72 h, 3-day culture in the presence of the compound. As for the experimental part:
NCI-H358 cells (ATCC, Cat #: CRL-5807), which are a KRAS-G12C mutant human lung cancer cell line, were suspended in a 10% fetal bovine serum-containing RPMI1640 medium (manufactured by Fujifilm Wako Pure Chemical Corporation.). The cell suspension was seeded into each well of a 384-well flat-bottom microplate and cultured in an incubator containing 5% CO2 gas at 37° C. for 1 day. The test compound was dissolved in DMSO, and diluted with DMSO to give a concentration 500 times the final concentration. The solution of the test compound in DMSO was diluted with the medium used for suspending cells and added to each well of the cell-culture plate to give a DMSO final concentration of 0.2%, followed by culture in an incubator containing 5% CO2 gas at 37° C. for another 3 days. The cell count after 3-day culture in the presence of the compound was measured using CellTiter-Glo2.0 (manufactured by Promega Corporation) in accordance with the protocol recommended by Promega Corporation. The growth inhibition rate was calculated from the following equation, and the concentration of the test compound at which 50% inhibition was achieved (IC50 (nM)) was determined. […] Growth Inhibition Rate (%)=(C−T)/(C)×100 • T: the emission intensity in a well into which a test compound was added. • C: the emission intensity in a well into which a test compound was not added.
On the technique in general: In ATP-based viability assays light output follows the ATP content of the culture.

Chain of G12C K-Ras4B (1-169) (P01116 other isoform, or with tags, fused parts or gaps G12C): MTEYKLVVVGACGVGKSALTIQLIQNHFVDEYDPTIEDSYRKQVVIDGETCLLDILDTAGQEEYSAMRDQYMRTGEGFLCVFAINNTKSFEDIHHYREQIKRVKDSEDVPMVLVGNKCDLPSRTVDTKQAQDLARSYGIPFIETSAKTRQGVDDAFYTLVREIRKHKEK

In general, IC50 refers to the concentration at which inhibition is half-maximal. Turning to `C=CC(=O)N1CC(NC(=O)c2c(Cl)nc(CNc3n[nH]c4cc(Cl)c(C(C)(C)C)cc34)n2C2CN(C(C)C)C2)C1` [Example 107, N-(1-acryloylazetidin-3-yl)-2-(((5-(tert-butyl)-6-chloro-1H-indazol-3-yl)amino)methyl)-4-chloro-1-(1-isopropylazetidin-3-yl)-1H-imidazole-5-carboxamide], the “binding rate for G12C K-Ras4B (1-169)” value at G12C K-Ras4B (1-169) was “A (a binding rate of 80% or more is rated “A,”)”. Also, the IC50 in the assay on NCI-H358 cells was determined as 0.078 µM.
For `C=CC(=O)N1CC(NC(=O)c2c(Cl)nc(CNc3n[nH]c4cc(Cl)c(C(C)(C)C)cc34)n2C2CN(C(=O)OC(C)(C)C)C2)C1` [Example 106, Tert-butyl 3-(5-((1-acryloylazetidin-3-yl)carbamoyl)-2-(((5-(tert-butyl)-6-chloro-1H-indazol-3-yl)amino)methyl)-4-chloro-1H-imidazol-1-yl)azetidine-1-carboxylate], the “binding rate for G12C K-Ras4B (1-169)” value at G12C K-Ras4B (1-169) is on record as “A (a binding rate of 80% or more is rated “A,”)”. Further, the IC50 with NCI-H358 cells was 0.042 µM.
The corresponding values for `C=CC(=O)N1CC(NC(=O)c2c(C)nc(CNc3n[nH]c4cc(Cl)c(C(C)(C)C)cc34)n2C(C)C)C1` [Example 13, N-(1-acryloylazetidin-3-yl)-2-(((5-(tert-butyl)-6-chloro-1H-indazol-3-yl)amino)methyl)-1-isopropyl-4-methyl-1H-imidazole-5-carboxamide] are “A (a binding rate of 80% or more is rated “A,”)” and 0.135 µM.
Regarding `C=CC(=O)N1CC(NC(=O)c2c(Cl)nc(CNc3n[nH]c4cc(Cl)c(C(C)(C)C)cc34)n2[C@@H]2CCN(c3ccccn3)C2)C1` [Example 124, (R)—N-(1-acryloylazetidin-3-yl)-2-(((5-(tert-butyl)-6-chloro-1H-indazol-3-yl)amino)methyl)-4-chloro-1-(1-(pyridin-2-yl)pyrrolidin-3-yl)-1H-imidazole-5-carboxamide], at G12C K-Ras4B (1-169), the “binding rate for G12C K-Ras4B (1-169)” value was “A (a binding rate of 80% or more is rated “A,”)”. Besides, the IC50 with NCI-H358 cells is 0.019 µM.
The corresponding values for `C=CC(=O)N1CC(NC(=O)c2c(Cl)nc(CNc3n[nH]c4cc(Cl)c(C(C)(C)C)cc34)n2[C@@H]2C[C@@H](C)N(CC(F)F)C2)C1` [Example 126, N-(1-acryloylazetidin-3-yl)-2-(((5-(tert-butyl)-6-chloro-1H-indazol-3-yl)amino)methyl)-4-chloro-1-((3R,5R)-1-(2,2-difluoroethyl)-5-methylpyrrolidin-3-yl)-1H-imidazole-5-carboxamide] are “A (a binding rate of 80% or more is rated “A,”)” and 0.035 µM.
For `C=CC(=O)N1CC(NC(=O)c2c(Cl)nc(CNc3n[nH]c4cc(Cl)c(C(C)(C)C)cc34)n2[C@@H]2CCN(C(C)C)C2)C1` [Example 114, (R)—N-(1-acryloylazetidin-3-yl)-2-(((5-(tert-butyl)-6-chloro-1H-indazol-3-yl)amino)methyl)-4-chloro-1-(1-isopropylpyrrolidin-3-yl)-1H-imidazole-5-carboxamide], the “binding rate for G12C K-Ras4B (1-169)” value on G12C K-Ras4B (1-169) is reported as “A (a binding rate of 80% or more is rated “A,”)”. Besides, in the assay with NCI-H358 cells, the IC50 was 0.032 µM.
In the case of `C=CC(=O)N1CC(NC(=O)c2cnc(C(C)Nc3n[nH]c4cc(Cl)c(C(C)(C)C)cc34)n2C)C1` (stereo not drawn) [Example 4, N-(1-acryloylazetidin-3-yl)-2-(1-((5-(tert-butyl)-6-chloro-1H-indazol-3-yl)amino)ethyl)-1-methyl-1H-imidazole-5-carboxamide], on G12C K-Ras4B (1-169), the “binding rate for G12C K-Ras4B (1-169)” value was “C (a binding rate of 40% or more and less than 60% is rated “C,”)”.
On to `C=CC(=O)N1CC(NC(=O)c2c(C)nc(CNc3n[nH]c4cc(Cl)c(C(C)(C)C)cc34)n2CC(F)(F)F)C1` [Example 22, N-(1-acryloylazetidin-3-yl)-2-(((5-(tert-butyl)-6-chloro-1H-indazol-3-yl)amino)methyl)-4-methyl-1-(2,2,2-trifluoroethyl)-1H-imidazole-5-carboxamide], for which the “binding rate for G12C K-Ras4B (1-169)” value on G12C K-Ras4B (1-169) is “B (a binding rate of 60% or more and less than 80% is rated “B,”)”.
Turning to `C=CC(=O)N1CC(NC(=O)c2c(Cl)nc(CNc3n[nH]c4cc(Cl)c(C(C)(C)C)cc34)n2C2CCCN(C)C2)C1` (stereo not drawn) [Example 118, N-(1-acryloylazetidin-3-yl)-2-(((5-(tert-butyl)-6-chloro-1H-indazol-3-yl)amino)methyl)-4-chloro-1-(1-methylpiperidin-3-yl)-1H-imidazole-5-carboxamide], at G12C K-Ras4B (1-169), the “binding rate for G12C K-Ras4B (1-169)” value is recorded as “A (a binding rate of 80% or more is rated “A,”)”.
`C=CC(=O)N1CC(NC(=O)c2c(C(F)F)nc(CNc3n[nH]c4cc(Cl)c(C(C)(C)C)cc34)n2C2CCN(CC)C2)C1` (stereo not drawn) [Example 92, N-(1-acryloylazetidin-3-yl)-2-(((5-(tert-butyl)-6-chloro-1H-indazol-3-yl)amino)methyl)-4-(difluoromethyl)-1-(1-ethylpyrrolidin-3-yl)-1H-imidazole-5-carboxamide]: the “binding rate for G12C K-Ras4B (1-169)” value on G12C K-Ras4B (1-169) is “B (a binding rate of 60% or more and less than 80% is rated “B,”)”.
In the case of `C=CC(=O)N1CC(NC(=O)c2c(C)nc(CNc3n[nH]c4ccc(C(C)(C)C)cc34)n2C(C)C)C1` [Example 42, N-(1-acryloylazetidin-3-yl)-2-(((5-(tert-butyl)-1H-indazol-3-yl)amino)methyl)-1-isopropyl-4-methyl-1H-imidazole-5-carboxamide], the “binding rate for G12C K-Ras4B (1-169)” value at G12C K-Ras4B (1-169) is “B (a binding rate of 60% or more and less than 80% is rated “B,”)”.
For the molecule `C/C=C/C(=O)N1CC(NC(=O)c2c(C)nc(CNc3n[nH]c4cc(Cl)c(C(C)(C)C)cc34)n2C(C)C)C1` [Example 81, (E)-N-(1-(but-2-enoyl)azetidin-3-yl)-2-(((5-(tert-butyl)-6-chloro-1H-indazol-3-yl)amino)methyl)-1-isopropyl-4-methyl-1H-imidazole-5-carboxamide], at G12C K-Ras4B (1-169), the “binding rate for G12C K-Ras4B (1-169)” value was “E (a binding rate of less than 20% is rated “E.”)”.
Take `C=CC(=O)N1C[C@@H](NC(=O)c2c(C)nc(CNc3n[nH]c4cc(Cl)c(C(C)(C)C)cc34)n2C)[C@H]1C` (relative stereo) [Example 52, N-((2R*,3R*)-1-acryloyl-2-methylazetidin-3-yl)-2-(((5-(tert-butyl)-6-chloro-1H-indazol-3-yl)amino)methyl)-1,4-dimethyl-1H-imidazole-5-carboxamide]: the “binding rate for G12C K-Ras4B (1-169)” value at G12C K-Ras4B (1-169) is “B (a binding rate of 60% or more and less than 80% is rated “B,”)”.
With `C=CC(=O)N1CC(NC(=O)c2c(Cl)nc(CNc3n[nH]c4cc(Cl)c(C(C)(C)C)cc34)n2[C@@H]2CCN(CC(F)F)[C@H]2C)C1` [Example 125, N-(1-acryloylazetidin-3-yl)-2-(((5-(tert-butyl)-6-chloro-1H-indazol-3-yl)amino)methyl)-4-chloro-1-((2S,3R)-1-(2,2-difluoroethyl)-2-methylpyrrolidin-3-yl)-1H-imidazole-5-carboxamide], on G12C K-Ras4B (1-169), the “binding rate for G12C K-Ras4B (1-169)” value was “A (a binding rate of 80% or more is rated “A,”)”.
The same measure, in the same setting: the value for `C=CC(=O)N1CC(NC(=O)c2c(Cl)nc(CNc3n[nH]c4cc(Cl)c(C(C)(C)C)cc34)n2[C@H]2CCN(C(C)C)C2)C1` [Example 116, (S)—N-(1-acryloylazetidin-3-yl)-2-(((5-(tert-butyl)-6-chloro-1H-indazol-3-yl)amino)methyl)-4-chloro-1-(1-isopropylpyrrolidin-3-yl)-1H-imidazole-5-carboxamide] was “B (a binding rate of 60% or more and less than 80% is rated “B,”)”; that for `C=CC(=O)N1CC(NC(=O)c2c(C#N)nc(CNc3n[nH]c4cc(Cl)c(C(C)(C)C)cc34)n2C)C1` [Example 28, N-(1-acryloylazetidin-3-yl)-2-(((5-(tert-butyl)-6-chloro-1H-indazol-3-yl)amino)methyl)-4-cyano-1-methyl-1H-imidazole-5-carboxamide] was “B (a binding rate of 60% or more and less than 80% is rated “B,”)”.
On to `C=CC(=O)N1C[C@H](NC(=O)c2c(C)nc(CNc3n[nH]c4cc(Cl)c(C(C)(C)C)cc34)n2C)C2(CC2)C1` [Example 54, (R)—N-(5-acryloyl-5-azaspiro[2.4]heptan-7-yl)-2-(((5-(tert-butyl)-6-chloro-1H-indazol-3-yl)amino)methyl)-1,4-dimethyl-1H-imidazole-5-carboxamide], for which, on G12C K-Ras4B (1-169), the “binding rate for G12C K-Ras4B (1-169)” value was “B (a binding rate of 60% or more and less than 80% is rated “B,”)”.
As for `C=CC(=O)N1CC(NC(=O)c2cnc(CNc3n[nH]c4cc(Cl)c(C)cc34)n2C)C1` [Example 37, N-(1-acryloylazetidin-3-yl)-2-(((6-chloro-5-methyl-1H-indazol-3-yl)amino)methyl)-1-methyl-1H-imidazole-5-carboxamide], on G12C K-Ras4B (1-169), the “binding rate for G12C K-Ras4B (1-169)” value is “C (a binding rate of 40% or more and less than 60% is rated “C,”)”.
